According to paper PMC10063609, “Discovery of novel cardiac troponin activators using fluorescence polarization-based high throughput screening assays” (Scientific Reports, 2023):
Counter-ions that a name gives are not always drawn.

System: Ca2+-saturated cChimera
Assay: not given
Set-up: method as in PMID 35755445
Details: cited from earlier work

Compound | Affinity
O=C(O)c1ccc(-c2ccccc2Nc2cccc(Cl)c2)cc1 [RPI-194] | low micromolar affinity

Molecular target: interaction between cTnC and the anchoring region of cTnI (cTnIAR) (Homo sapiens, UniProt P63316)
Assay: Fluorescence polarization HTS, binding and dose-response, cTnC/FAM-cTnIAR
Details: > 10 μmol/L; potentially assay interference

Compound | FP at higher drug concentrations
CC(C)CCCC(C)C1CCC2C3CC(NCCCNCCCCNCCCN)C4CC(O)CCC4(C)C3CCC12C (stereo not drawn) [Claramine] | sudden increase in the FP
N=C(N)c1ccc(-c2ccc(-c3ccc(C(=N)N)cc3)o2)cc1 [Furamidine] | sudden increase in the FP

Same assay, conditions: cTnIAR primary screen, ENZO Screenwell library, single concentration 10 μmol/L

FP (mP) | Compound
58.8 mP | [H]/N=C(\N/C(=N/[H])NCCCCCCNC(=N)NC(=N)Nc1ccc(Cl)cc1)Nc1ccc(Cl)cc1 [Chlorhexidine Dihydrochloride]
118 mP | Cc1cn[nH]c1 [Fomepizole]
116.5 mP | CC1Cc2ccccc2N1NC(=O)c1ccc(Cl)c(S(N)(=O)=O)c1 (stereo not drawn) [Indapamide]
70.9 mP | NC(=O)N1c2ccccc2CC(=O)c2ccccc21 [Oxcarbazepine]

Compound | FP (mP)
N.N.O=C([O-])C1(C(=O)[O-])CCC1.[Pt+2] [Carboplatin] | 67.3 mP
N.N.[Cl][Pt][Cl] [Cisplatin, Cis-Diamineplatinum(Ii) Dichloride] | 61.9 mP
Colistin Sulfate | 71.7 mP

Same assay, conditions: cTnIAR primary screen, LOPAC 1280 library, single concentration 10 μmol/L

Compound | FP (mP)
N.N.[Cl][Pt][Cl] [Cisplatin, Cis-Diamineplatinum(Ii) Dichloride] | 56.6 mP
CC(C)CCCC(C)C1CCC2C3CC(NCCCNCCCCNCCCN)C4CC(O)CCC4(C)C3CCC12C (stereo not drawn) [Claramine] | 53.9 mP
CN(C)c1cc2c(Nc3ccc4c(cnn4Cc4ccccc4)c3)ncnc2cn1 [GW2974] | 117.8 mP
O=C1c2c(O)ccc(O)c2C(=O)c2c(NCCNCCO)ccc(NCCNCCO)c21 [Mitoxantrone] | 57.1 mP
C[C@]12C=CC(=O)C=C1CC[C@@H]1C2=CC[C@]2(C)[C@@H](C(=O)CN3CCN(c4cc(N5CCCC5)nc(N5CCCC5)n4)CC3)CC[C@@H]12.O=C(O)/C=C\C(=O)O [U-74389G maleate] | 115.3 mP

More lines, now with the values ahead:

FP (mP) | Compound
64.6 mP | COc1ccc(-c2oc3c(CC=C(C)C)c(O)cc(O)c3c(=O)c2O)cc1 [Icaritin]
71.7 mP | O=C(O)c1cccc(-c2ccc(-c3cn(C(=O)N4CCCCC4Cc4ccccc4)nn3)cc2)c1 (stereo not drawn) [KT203]
121.9 mP | O=C(O)c1ccc(-c2ccc(/C=C3\SC(=S)N(Cc4ccccc4)C3=O)o2)cc1 [Leukadherin-1]
44.3 mP | N.N.N.N.N.N.N.N.N.N.N.N.N.N.[Cl-].[Cl-].[Cl-].[Cl-].[Cl-].[Cl-].[O-2].[O-2].[Ru+3].[Ru+3].[Ru+4] [Ruthenium red]
65 mP | Oc1c2ccccc2c2c3c(cccc13)N=N2 [SP600125]
115.8 mP | N#CC(C#N)=C(N)/C(C#N)=C/c1ccc(O)cc1 [Tyrphostin AG 112]
67.5 mP | Cl.c1ccc(C2CCCC2NC2=NCCCCCCCCCCC2)cc1 (stereo not drawn) [cDPCP]

Same assay, conditions: cTnIAR primary screen, TOCRIScreen library, single concentration 10 μmol/L

Compound | FP (mP)
O=C(NCc1ccc(C(F)(F)F)cc1)Nc1cccc2cnccc12 [A 425619] | 105.5 mP
O=C(O)C[C@H]1CC[C@H](c2ccc(NC(=O)c3nnc(Nc4ccc(F)c(F)c4)o3)cc2)CC1 [AZD 3988] | 115.5 mP
N=C(N)c1ccc(-c2ccc(-c3ccc(C(=N)N)cc3)o2)cc1 [Furamidine] | 73.2 mP

Same assay, conditions: concentrations of up to 100 μmol/L; 2 nmol/L FAM-cTnIAR, 5 nmol/L cTnC

Compound | Total fluorescence intensity of the assay mixture
CC(C)CCCC(C)C1CCC2C3CC(NCCCNCCCCNCCCN)C4CC(O)CCC4(C)C3CCC12C (stereo not drawn) [Claramine] | not affected
N=C(N)c1ccc(-c2ccc(-c3ccc(C(=N)N)cc3)o2)cc1 [Furamidine] | not affected

Same assay, conditions: dose-response, concentration dependent (Fig. 2c)

Compound | Effect on FP from the cTnC FAM-cTnIAR mixture
CC(C)CCCC(C)C1CCC2C3CC(NCCCNCCCCNCCCN)C4CC(O)CCC4(C)C3CCC12C (stereo not drawn) [Claramine] | decreased the FP
N=C(N)c1ccc(-c2ccc(-c3ccc(C(=N)N)cc3)o2)cc1 [Furamidine] | decreased the FP
COc1ccc(-c2oc3c(CC=C(C)C)c(O)cc(O)c3c(=O)c2O)cc1 [Icaritin] | decreased the FP
O=C(O)c1cccc(-c2ccc(-c3cn(C(=O)N4CCCCC4Cc4ccccc4)nn3)cc2)c1 (stereo not drawn) [KT203] | decreased the FP

System: bovine cardiac myofibrils
Assay: NADH-coupled ATPase activity of isolated cardiac myofibrils
Type: biochemical
Details: sub-maximal activation (~70% of maximal), pCa 5.8

Compound | Decrease of myofibrilar ATPase activity
CC(C)CCCC(C)C1CCC2C3CC(NCCCNCCCCNCCCN)C4CC(O)CCC4(C)C3CCC12C (stereo not drawn) [Claramine] | 40–50%
N=C(N)c1ccc(-c2ccc(-c3ccc(C(=N)N)cc3)o2)cc1 [Furamidine] | 40–50%

Same assay, conditions: sub-maximal activation (~70% of maximal), pCa 5.8, up to 100 μmol/L

Effect on myofibrillar ATPase activity | Compound
no effect | COc1ccc(-c2oc3c(CC=C(C)C)c(O)cc(O)c3c(=O)c2O)cc1 [Icaritin]
no effect | O=C(O)c1cccc(-c2ccc(-c3cn(C(=O)N4CCCCC4Cc4ccccc4)nn3)cc2)c1 (stereo not drawn) [KT203]

Molecular target: Ca2+-saturated cTnC (Homo sapiens, UniProt P63316)
Assay: ITC binding to full length Ca2+-saturated cTnC
Details: not given

Compound | T∆S | ∆H
CC(C)CCCC(C)C1CCC2C3CC(NCCCNCCCCNCCCN)C4CC(O)CCC4(C)C3CCC12C (stereo not drawn) [Claramine] | 21.8 ± 1.3 kJ/mol | -4.6 ± 1.3 kJ/mol
N=C(N)c1ccc(-c2ccc(-c3ccc(C(=N)N)cc3)o2)cc1 [Furamidine] | 7.7 ± 3 kJ/mol | -19.4 ± 3.17 kJ/mol

Same assay, conditions: means ± SEM, n = 3

Compound | Kd
CC(C)CCCC(C)C1CCC2C3CC(NCCCNCCCCNCCCN)C4CC(O)CCC4(C)C3CCC12C (stereo not drawn) [Claramine] | 21.6 ± 1.8 µM
N=C(N)c1ccc(-c2ccc(-c3ccc(C(=N)N)cc3)o2)cc1 [Furamidine] | 11.9 ± 5.5 µM

System: not listed separately
Assay: Solubility in aqueous buffer
Type: physicochemical
Details: not given
Description: Figure S2. […] D MSO stocks of NS5806 were diluted with assay
buffer to the indicated concentrations (fixed DMSO concentration of 0.1% (v/v)), potential
aggregates removed by ultra -centrifugation and the absorbance at 296 nm plotted against the
in aqueous buffers up to a concentration of at least 500 µmol/L. (B) Total fluorescent intensity
dose-response curves for Claramine (red) and Furamidine (green) in the presence of 2 nmol/L
(1 picture or pasted object on this page, not shown here)

Compound | solubility
N=C(N)c1ccc(-c2ccc(-c3ccc(C(=N)N)cc3)o2)cc1 [Furamidine] | > 25 mM

Same assay, conditions: aqueous solutions; read-out: Solubility in aqueous solutions

Compound | solubility
CC(C)CCCC(C)C1CCC2C3CC(NCCCNCCCCNCCCN)C4CC(O)CCC4(C)C3CCC12C (stereo not drawn) [Claramine] | > 25 mM

System: demembranated human donor ventricular tissue
Assay: Force-pCa titrations of demembranated human donor myocardium
Type: cell-based
Details: 100 μmol/L, 2 μm sarcomere length

Compound | Effect on calcium sensitivity / force-pCa relation | Effect on maximal isometric force development | Steepness of the force-pCa relation (nH)
CC(C)CCCC(C)C1CCC2C3CC(NCCCNCCCCNCCCN)C4CC(O)CCC4(C)C3CCC12C (stereo not drawn) [Claramine] | no or little effect |  | 
N=C(N)c1ccc(-c2ccc(-c3ccc(C(=N)N)cc3)o2)cc1 [Furamidine] | slightly increased the calcium sensitivity | no effect | no effect

Molecular target: interaction between cTnC and switch peptide of cTnI (cTnISP) (Homo sapiens, UniProt P63316)
Assay: Fluorescence polarization HTS and dose-response, cTnC/FAM-cTnISP
Type: binding
Details: cTnISP primary screen, ENZO Screenwell library, single concentration 50 μmol/L

Compound | FP (mP)
Colistin Sulfate | 78.5 mP

Same assay, conditions: cTnISP primary screen, LOPAC 1280 library, single concentration 50 μmol/L

Compound | FP (mP)
N=C(N)c1ccc(-c2ccc(-c3ccc(C(=N)N)cc3)o2)cc1 [Furamidine] | 91.8 mP
N.N.N.N.N.N.N.N.N.N.N.N.N.N.[Cl-].[Cl-].[Cl-].[Cl-].[Cl-].[Cl-].[O-2].[O-2].[Ru+3].[Ru+3].[Ru+4] [Ruthenium red] | 83.7 mP

Same assay, conditions: cTnISP primary screen, TOCRIScreen library, single concentration 50 μmol/L

Compound | FP (mP)
N=C(N)c1ccc(-c2ccc(-c3ccc(C(=N)N)cc3)o2)cc1 [Furamidine] | 83.1 mP

Molecular target: Ca2+-saturated N-lobe of cTnC
Assay: not given
Set-up: method as in PMID 35755445
Details: isolated Ca2+-saturated N-lobe of cTnC; cited from earlier work

Compound | Kd
O=C(O)c1ccc(-c2ccccc2Nc2cccc(Cl)c2)cc1 [RPI-194] | > 300 µM

Molecular target: cTnC-cTnIAR interaction (Homo sapiens, UniProt P63316)
Assay: ITC titration of unlabelled cTnIAR peptide into cTnC without or with compound
Details: not given

Compound | Effect on the interaction / binding affinity of cTnC for cTnIAR
CC(C)CCCC(C)C1CCC2C3CC(NCCCNCCCCNCCCN)C4CC(O)CCC4(C)C3CCC12C (stereo not drawn) [Claramine] | no or little effect
N=C(N)c1ccc(-c2ccc(-c3ccc(C(=N)N)cc3)o2)cc1 [Furamidine] | reduced by several orders of magnitude
